# Tested on: COS-1 cells
# Experiment: In vitro mammalian cytotoxicity assay (Resazurin)
row,SMILES,In Vitro Cytotoxicity
1,CCOc1ccc(/C=C2\c3cccc(O)c3C(=O)C3=C(O)[C@]4(C#N)C(=O)C(C(N)=O)=C(O)[C@@H](N(C)C)[C@]4(N)[C@@H](O)[C@@]32N)cc1 [DF],** (toxicities less than 25 μg/mL are represented by **)
2,CN(C)c1cc(CCc2ccccc2)c(O)c2c1C[C@@]1(N)C[C@@]3(N)[C@H](N(C)C)C(O)=C(C(N)=O)C(=O)[C@@]3(C#N)C(O)=C1C2=O [MN],** (toxicities less than 25 μg/mL are represented by **)
3,C=CC(O)O[C@H]1[C@@]2(N)C(=C(O)[C@]3(C#N)C(=O)C(C(N)=O)=C(O)[C@@H](N(C)C)[C@]13N)C(=O)c1c(O)cccc1[C@@H]2N (some centres unmarked) [BO],** (toxicities less than 25 μg/mL are represented by **)
4,CCN(CC)c1ccc(-c2csc(Nc3ccc4c(c3O)C(=O)C3=C(O)[C@]5(C#N)C(=O)C(C(N)=O)=C(O)[C@@H](N(C)C)[C@]5(N)[C@@H](O)[C@]3(N)[C@H]4O)n2)cc1 [DU],** (toxicities less than 25 μg/mL are represented by **)
5,CN(C)c1cc(CNCC2CCCCC2)c(O)c2c1C[C@@]1(N)C[C@@]3(N)[C@H](N(C)C)C(O)=C(C(N)=O)C(=O)[C@@]3(C#N)C(O)=C1C2=O [TB],* (toxicities greater than >25 μg/ml are represented by *)
6,CCOc1ccc(-c2ccc(O)c3c2C[C@@]2(N)C[C@@]4(N)C(N(C)C)C(O)=C(C(N)=O)C(=O)[C@@]4(C#N)C(O)=C2C3=O)cc1CNC(=O)C(F)(F)F (some centres unmarked) [QQ],* (toxicities greater than >25 μg/ml are represented by *)
7,CN(C)CCNC(=O)c1ccc(-c2ccc(O)c3c2C[C@@]2(N)C[C@@]4(N)[C@H](N(C)C)C(O)=C(C(N)=O)C(=O)[C@@]4(C#N)C(O)=C2C3=O)cc1 [PC],* (toxicities greater than >25 μg/ml are represented by *)
8,CN(C)c1cc(NCC2CCCCC2)c(O)c2c1C[C@@]1(N)C[C@@]3(N)[C@H](N(C)C)C(O)=C(C(N)=O)C(=O)[C@@]3(C#N)C(O)=C1C2=O [MR],** (toxicities less than 25 μg/mL are represented by **)
9,CN(C)c1cc(-c2ccc(OC(F)(F)F)cc2)c(O)c2c1C[C@@]1(N)C[C@@]3(N)[C@H](N(C)C)C(O)=C(C(N)=O)C(=O)[C@@]3(C#N)C(O)=C1C2=O [MA],** (toxicities less than 25 μg/mL are represented by **)
10,CN(C)[C@@H]1C(O)=C(C(N)=O)C(=O)[C@@]2(C#N)C(O)=C3C(=O)c4c(ccc(NC(=O)OCCBr)c4O)[C@H](N)[C@@]3(N)[C@H](O)[C@@]12N [DD],** (toxicities less than 25 μg/mL are represented by **)
11,CN(C)c1ccc(-c2cc(N)c(O)c3c2C[C@@]2(N)C[C@@]4(N)C(N(C)C)C(O)=C(C(N)=O)C(=O)[C@@]4(C#N)C(O)=C2C3=O)cc1 (some centres unmarked) [RB],* (toxicities greater than >25 μg/ml are represented by *)
12,CCNC(=O)Nc1cc(N(C)C)c2c(c1O)C(=O)C1=C(O)[C@]3(C#N)C(=O)C(C(N)=O)=C(O)[C@@H](N(C)C)[C@]3(N)C[C@]1(N)C2 [KJ],** (toxicities less than 25 μg/mL are represented by **)
13,CN(C)CC#Cc1ccc(O)c2c1C[C@@]1(N)C[C@@]3(N)[C@H](N(C)C)C(O)=C(C(N)=O)C(=O)[C@@]3(C#N)C(O)=C1C2=O [FJ],** (toxicities less than 25 μg/mL are represented by **)
14,CN(C)[C@@H]1C(O)=C(C(N)=O)C(=O)[C@@]2(C#N)C(O)=C3C(=O)c4c(O)c(C(C)(C)C)cc(I)c4C[C@@]3(N)C[C@@]12N [NR],** (toxicities less than 25 μg/mL are represented by **)
15,Cc1coc(NCc2cc(N(C)C)c3c(c2O)C(=O)C2=C(O)[C@]4(C#N)C(=O)C(C(N)=O)=C(O)[C@@H](N(C)C)[C@]4(N)C[C@]2(N)C3)n1 [TE],* (toxicities greater than >25 μg/ml are represented by *)
16,COc1ccc(CNCc2cccc(F)c2)cc1-c1ccc(O)c2c1C[C@@]1(N)C[C@@]3(N)[C@H](N(C)C)C(O)=C(C(N)=O)C(=O)[C@@]3(C#N)C(O)=C1C2=O [NG],** (toxicities less than 25 μg/mL are represented by **)
17,CC(C)CNC(=O)NCc1cc(N(C)C)c2c(c1O)C(=O)C1=C(O)[C@]3(C#N)C(=O)C(C(N)=O)=C(O)[C@@H](N(C)C)[C@]3(N)C[C@]1(N)C2 [MF],* (toxicities greater than >25 μg/ml are represented by *)
18,CN(C)[C@@H]1C(O)=C(C(N)=O)C(=O)[C@@]2(C#N)C(O)=C3C(=O)c4c(O)ccc(-c5ccc(C(C)(C)C)cc5)c4C[C@@]3(N)C[C@@]12N [GK],** (toxicities less than 25 μg/mL are represented by **)
19,CN(C)c1cc(-c2ccco2)c(O)c2c1C[C@@]1(N)C[C@@]3(N)[C@H](N(C)C)C(O)=C(C(N)=O)C(=O)[C@@]3(C#N)C(O)=C1C2=O [DZ],** (toxicities less than 25 μg/mL are represented by **)
20,CN(C)[C@@H]1C(O)=C(C(N)=O)C(=O)[C@@]2(C#N)C(O)=C3C(=O)c4c(O)c(-c5cccc6c5OCO6)cc(-c5ccc6c(c5)OCO6)c4[C@H](N)[C@@]3(N)[C@H](O)[C@@]12N [PU],** (toxicities less than 25 μg/mL are represented by **)
21,CN(C)c1cc(C#CC2=CCCC2)c(O)c2c1C[C@@]1(N)C[C@@]3(N)[C@H](N(C)C)C(O)=C(C(N)=O)C(=O)[C@@]3(C#N)C(O)=C1C2=O [KN],** (toxicities less than 25 μg/mL are represented by **)

row,SMILES,In Vitro Cytotoxicity
1,CN(C)[C@@H]1C(O)=C(C(N)=O)C(=O)[C@@]2(C#N)C(O)=C3C(=O)c4c(O)ccc(C=C5CCC5)c4C[C@@]3(N)C[C@@]12N [FS],** (toxicities less than 25 μg/mL are represented by **)
2,CC(C)NCc1ccc(-c2ccc(O)c3c2C[C@@]2(N)C[C@@]4(N)[C@H](N(C)C)C(O)=C(C(N)=O)C(=O)[C@@]4(C#N)C(O)=C2C3=O)c2ccccc12 [OE],** (toxicities less than 25 μg/mL are represented by **)
3,CN(C)[C@@H]1C(O)=C(C(N)=O)C(=O)[C@@]2(C#N)C(O)=C3C(=O)c4c(ccc(-c5cc6ccccc6[nH]5)c4O)[C@H](N)[C@@]3(N)[C@H]([S+](N)[O-])[C@@]12N (some centres unmarked) [BT],** (toxicities less than 25 μg/mL are represented by **)
4,CN(C)[C@@H]1C(O)=C(C(N)=O)C(=O)[C@@]2(C#N)C(O)=C3C(=O)c4c(O)ccc(-c5ccc(CN6CCOCC6)cc5)c4C[C@@]3(N)C[C@@]12N [HT],* (toxicities greater than >25 μg/ml are represented by *)
5,COc1ccc(C(=O)Nc2ccc(-c3ccc(O)c4c3C[C@@]3(N)C[C@@]5(N)C(N(C)C)C(O)=C(C(N)=O)C(=O)[C@@]5(C#N)C(O)=C3C4=O)cc2)cc1 (some centres unmarked) [QR],** (toxicities less than 25 μg/mL are represented by **)
6,COC(=O)c1ccc(O)c2c1C[C@@]1(N)C[C@@]3(N)[C@H](N(C)C)C(O)=C(C(N)=O)C(=O)[C@@]3(C#N)C(O)=C1C2=O [RV],** (toxicities less than 25 μg/mL are represented by **)
7,CN(C)[C@@H]1C(O)=C(C(N)=O)C(=O)[C@@]2(C#N)C(O)=C3C(=O)c4c(ccc(Nc5nc(-c6ccc(F)cc6)cs5)c4O)C[C@@]3(N)C[C@@]12N [EB],* (toxicities greater than >25 μg/ml are represented by *)
8,CN(C)[C@@H]1C(O)=C(C(N)=O)C(=O)[C@@]2(C#N)C(O)=C3C(=O)c4c(O)ccc(-c5ccc(Cl)o5)c4C[C@@]3(N)C[C@@]12N [FV],** (toxicities less than 25 μg/mL are represented by **)
9,CN(C)[C@@H]1C(O)=C(C(N)=O)C(=O)[C@@]2(C#N)C(O)=C3C(=O)c4c(O)ccc(C(=O)Cc5ccccc5)c4C[C@@]3(N)C[C@@]12N [MB],* (toxicities greater than >25 μg/ml are represented by *)
10,CN(C)[C@@H]1C(O)=C(C(N)=O)C(=O)[C@@]2(C#N)C(O)=C3C(=O)c4c(O)ccc(-c5ccc(F)cc5)c4[C@H](N)[C@@]3(N)[C@H](O)[C@@]12N [CQ],** (toxicities less than 25 μg/mL are represented by **)
11,CCCCc1ccc(O)c2c1C[C@@]1(N)C[C@@]3(N)[C@H](N(C)C)C(O)=C(C(N)=O)C(=O)[C@@]3(C#N)C(O)=C1C2=O [KY],** (toxicities less than 25 μg/mL are represented by **)
12,Cc1ccc(-c2ccc(O)c3c2C[C@@]2(N)C[C@@]4(N)[C@H](N(C)C)C(O)=C(C(N)=O)C(=O)[C@@]4(C#N)C(O)=C2C3=O)nc1 [VC],** (toxicities less than 25 μg/mL are represented by **)
13,CN(C)[C@@H]1C(O)=C(C(N)=O)C(=O)[C@@]2(C#N)C(O)=C3C(=O)c4c(O)ccc(-c5ccc(C(C)(C)C)cc5)c4C[C@@]3(N)C[C@@]12N [QH],** (toxicities less than 25 μg/mL are represented by **)
14,"CN(C)c1cc(-c2ccc(CN3CCN(CCO)CC3)o2)c(O)c2c1C[C@H]1C[C@H]3[C@H](N(C)C)C(O)=C(C(N)=O)C(=O)[C@@]3(O)C(O)=C1C2=O [Compound UC, 2-[4-(5-Minocyclin-9-yl-furan-2-ylmethyl)-piperazin-1-yl]-ethanol]",* (toxicities greater than >25 μg/ml are represented by *)
15,CN(C)[C@@H]1C(O)=C(C(N)=O)C(=O)[C@@]2(C#N)C(O)=C3C(=O)c4c(O)ccc(I)c4[C@H](N)[C@@]3(N)[C@H](O)[C@@]12N [CL],** (toxicities less than 25 μg/mL are represented by **)
16,COc1ccc(CN(C)C)cc1-c1ccc(O)c2c1C[C@@]1(N)C[C@@]3(N)[C@H](N(C)C)C(O)=C(C(N)=O)C(=O)[C@@]3(C#N)C(O)=C1C2=O [IM],* (toxicities greater than >25 μg/ml are represented by *)
17,CCc1cc(C(C)=O)c(O)c2c1C[C@@]1(N)C[C@@]3(N)[C@H](N(C)C)C(O)=C(C(N)=O)C(=O)[C@@]3(C#N)C(O)=C1C2=O [RJ],** (toxicities less than 25 μg/mL are represented by **)
18,CN(C)[C@@H]1C(O)=C(C(N)=O)C(=O)[C@@]2(C#N)C(O)=C3C(=O)c4c(O)ccc(-c5ccc(CNC6CC6)o5)c4C[C@@]3(N)C[C@@]12N [SX],** (toxicities less than 25 μg/mL are represented by **)
19,CN(C)[C@@H]1C(O)=C(C(N)=O)C(=O)[C@@]2(C#N)C(O)=C3C(=O)c4c(ccc(N5CCCCC5)c4O)C[C@@]3(N)C[C@@]12N [SO],** (toxicities less than 25 μg/mL are represented by **)
20,CCOC(=O)C(C)(/N=N/c1ccc2c(c1O)C(=O)C1=C(O)[C@]3(C#N)C(=O)C(C(N)=O)=C(O)[C@@H](N(C)C)[C@]3(N)[C@@H](O)[C@]1(N)[C@H]2N)C(=O)OCC [DK],** (toxicities less than 25 μg/mL are represented by **)

# Reference: patent US20050070510A1, “Substituted tetracycline compounds as synergistic antifungal agents” (Paratek Pharmaceuticals, Inc., priority 2001, published 2005)
